The target in one test is SHP2 (Homo sapiens (Human), UniProt Q06124). Briefly: SHP2 Biochemical Assay (DiFMUP conversion, pIRS1-activated). The gist of the method:
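Human SHP2 (10 pM) pre-incubated 30 min with compound and […] pIRS1 activating peptide, then 50 μM DiFMUP added; buffer 25 mM Bis-Tris propane pH 7.0, 150 mM NaCl, 5% DMSO. Fluorescence rate (ex 360/em 450 nm) over 30 min; IC50 by four-parameter fit, averaged across experiments.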

Test [1] concerns pERK (phospho-p44/42 MAPK Thr202/Tyr204) in HCC827 cells. Briefly: Cellular pERK Inhibition Assay, Method B (PathScan phospho-p44/42 MAPK sandwich ELISA). In kind it is cell-based. The following applies: for IC50: Homo sapiens. As for the experimental part: Cellular pERK Inhibition Assay
HCC827 cells (ATCC, Manassas, USA) were seeded into 96-well plates at a density of 1×10^5 cells/well in RPMI medium supplemented with 10% FBS and incubated 24h. Compounds were diluted first in DMSO and then into serum-free medium, before being added to cells in triplicate to give a final concentration of 0.1% DMSO. Plates were incubated at 37° C. for the indicated time in a humidified atmosphere of 5% CO2 in air.
Following compound treatment, medium was removed and cells were lysed by adding 50 μL of lysis buffer (Cell Signalling Technology, Beverly, USA) to each well. Plates were then incubated at room temperature for 25 minutes with shaking. pERK levels were measured in lysates using the PathScan(Registered Trademark) phospho-p44/42 MAPK (Thr202/Tyr204) sandwich ELISA (Cell Signalling Technology, Beverly, USA) as per kit instructions. Briefly, 50 μL of cell lysate was added to 50 μL of ELISA sample diluent in a 96-well ELISA plate and incubated overnight at 4° C. Following washing, 100 μL of detection antibody was added per well and the plates incubated for 1 hour at 37° C. Plates were washed again and incubated at 37° C. for 30 minutes with 100 μl of HRP-linked secondary antibody per well. After final washing, 100 μL per well of TMB substrate was added and plates incubated at 37° C. to develop colour. Colour development was stopped by the addition of 100 μL per well of stop solution. Plates were read at 450 nm on a SpectraMax Gemini reader (Molecular Devices, Uckfield, UK).
The average signal from blank wells (no cells added) was subtracted from the signals from each sample well. Levels of pERK were then expressed as “percent of control”, using DMSO treated samples as control. Dose response curves were generated using GraphPad Prism Version 6 (GraphPad Software, La Jolla, USA) and fitted using the four parameter logistic curve fit.

Test [2] has as its system pERK (phospho-p44/42 ERK) in HCC827 cells. Briefly: Cellular pERK Inhibition Assay, Method A (In-Cell Western). It is filed as cell-based. The following applies: Homo sapiens, Table 19, head prints unit as "-M", read-out: pERK (IC50) Method A. The procedure, abridged:
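HCC827 cells in RPMI/10% FBS were treated with compounds in serum-free medium (0.2% DMSO final) at 37 °C for the indicated time, in quadruplicate. Fixed cells were immunostained for phospho-p44/42 ERK and read by infrared imaging. Blank-subtracted signal was expressed as % of DMSO control; IC50 from four-parameter logistic fit, averaged across experiments.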

[3] abbreviates: Table 19, head prints unit as "-M".
Setting [4] is: Table 19, head prints unit as "-M", read-out: pERK (IC50) Method B.
The mark [5] stands for this setting: Table 20, read-out: pERK (IC50, μM) Method B.

Each structure is given as a SMILES string. Where a name gives a salt, the structure may show the parent alone. Read-outs that look alike come from different tables or passages of the source.

Sequence of SHP2 (Q06124 whole entry): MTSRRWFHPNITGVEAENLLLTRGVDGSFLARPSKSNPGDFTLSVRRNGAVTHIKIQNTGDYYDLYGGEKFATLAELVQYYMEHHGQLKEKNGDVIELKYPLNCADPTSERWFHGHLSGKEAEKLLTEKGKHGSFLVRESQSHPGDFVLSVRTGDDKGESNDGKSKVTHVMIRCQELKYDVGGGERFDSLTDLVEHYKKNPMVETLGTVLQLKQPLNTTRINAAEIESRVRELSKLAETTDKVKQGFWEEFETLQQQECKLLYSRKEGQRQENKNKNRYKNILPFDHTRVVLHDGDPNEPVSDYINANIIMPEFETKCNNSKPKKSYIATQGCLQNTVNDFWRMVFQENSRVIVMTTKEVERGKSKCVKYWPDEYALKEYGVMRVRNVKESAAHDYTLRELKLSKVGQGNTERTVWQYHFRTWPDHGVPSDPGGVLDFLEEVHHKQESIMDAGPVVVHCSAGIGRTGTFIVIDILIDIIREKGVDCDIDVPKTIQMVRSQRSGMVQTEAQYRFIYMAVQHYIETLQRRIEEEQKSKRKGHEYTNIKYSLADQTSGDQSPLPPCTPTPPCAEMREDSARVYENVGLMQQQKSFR

Take `Cn1cc2c(Cl)c(-c3n[nH]c4nc(N5[C@@H]6CC[C@H]5C[C@@H](N)C6)n(C)c(=O)c34)ccc2n1` [Example 136, endo-6-[3-amino-8-azabicyclo[3.2.1]octan-8-yl]-3-(4-chloro-2-methyl-2H-indazol-5-yl)-5-methyl-1H,4H,5H-pyrazolo[3,4-d]pyrimidin-4-one]: the IC50 is 30 nM on SHP2 (setting [3]) and 2.7 µM in test [1] (setting [4]).
The like results for `Cn1cc2c(Cl)c(-c3n[nH]c4nc(N5CCC6(CC5)C[C@@H](F)C[C@H]6N)n(C)c(=O)c34)ccc2n1` [Example 144, 6-[(1R,3R)-1-amino-3-fluoro-8-azaspiro[4.5]decan-8-yl]-3-(4-chloro-2-methyl-2H-indazol-5-yl)-5-methyl-1H,4H,5H-pyrazolo[3,4-d]pyrimidin-4-one hydrochloride salt] were, in that order, 19 nM and 0.21 µM.
Consider `CN(C)c1ccc2ccc(-c3c[nH]c4nc(N5[C@H]6CC[C@@H]5[C@H](N)C6)n(C)c(=O)c34)c(Cl)c2n1` [Example 198, 2-[(1R,2R,4S)-2-amino-7-azabicyclo[2.2.1]heptan-7-yl]-5-[8-chloro-2-(dimethylamino)quinolin-7-yl]-3-methyl-3H,4H,7H-pyrrolo[2,3-d]pyrimidin-4-one hydrochloride], for which the 50% inhibitory concentration (IC50) was found to be 13 nM on SHP2 (Table 20) and 0.066 µM in test [1] (setting [5]).
As for `CCn1cc2c(Cl)c(-c3c[nH]c4nc(N5CC6CNC(C6)C5)n(C)c(=O)c34)ccc2n1` (single isomer, unassigned) [Example 191, 5-(4-chloro-2-ethyl-2H-indazol-5-yl)-2-{3,6-diazabicyclo[3.2.1]octan-3-yl}-3-methyl-3H,4H,7H-pyrrolo[2,3-d]pyrimidin-4-one hydrochloride], half-maximal inhibition on SHP2 (Table 20) (IC50) was put at 92 nM. In test [1] (Table 20, at 10 uM), the “pERK Method B, % at given concentration” value is on record as 60% at 10 uM.
Turning to `Cn1cc2c(Cl)c(-c3n[nH]c4nc(N5[C@@H]6CC[C@H]5C[C@H](N)C6)n(C)c(=O)c34)ccc2n1` [Example 140, exo-6-[3-amino-8-azabicyclo[3.2.1]octan-8-yl]-3-(4-chloro-2-methyl-2H-indazol-5-yl)-5-methyl-1H,4H,5H-pyrazolo[3,4-d]pyrimidin-4-one], the IC50 is 17 nM against SHP2 (setting [3]) and 0.48 µM in test [1] (setting [4]).
In the case of `CCn1cc2ccc(-c3c[nH]c4nc(N5CCC6(CC5)COC[C@H]6N)n(C)c(=O)c34)c(Cl)c2n1` [Example 182, 2-[(4S)-4-amino-2-oxa-8-azaspiro[4.5]decan-8-yl]-5-(7-chloro-2-ethyl-2H-indazol-6-yl)-3-methyl-3H,4H,7H-pyrrolo[2,3-d]pyrimidin-4-one hydrochloride], the IC50 at SHP2 (Table 20) came to 36 nM; in test [1] (setting [5]), 2.2 µM.
For the molecule `Cn1cc2c(Cl)c(-c3c[nH]c4nc(N5[C@@H]6CC[C@H]5C[C@@](C)(N)C6)n(C)c(=O)c34)ccc2n1` [Example 16, 2-(endo-3-amino-3-methyl-8-azabicyclo[3.2.1]octan-8-yl)-5-(4-chloro-2-methyl-2H-indazol-5-yl)-3-methyl-3,7-dihydro-4H-pyrrolo[2,3-d]pyrimidin-4-one], the half-maximal inhibitory concentration (IC50) in test [2] turned out to be 110 nM; on SHP2 (setting [3]), 11 nM.
With `Cn1cc2c(Cl)c(-c3c[nH]c4nc(N5CC[C@@H](N)C5)n(C)c(=O)c34)ccc2n1` [Example 44, (R)-2-(3-aminopyrrolidin-1-yl)-5-(4-chloro-2-methyl-2H-indazol-5-yl)-3-methyl-3,7-dihydro-4H-pyrrolo[2,3-d]pyrimidin-4-one], the IC50 amounted to 1500 nM in test [2] and 55 nM against SHP2 (setting [3]).
As for `Cn1cc2c(Cl)c(-c3c[nH]c4nc(N5[C@@H]6CC[C@H]5C[C@H](N)C6)n(C)c(=O)c34)ccc2n1` [Example 10, 2-(exo-3-amino-8-azabicyclo[3.2.1]octan-8-yl)-5-(4-chloro-2-methyl-2H-indazol-5-yl)-3-methyl-3,7-dihydro-4H-pyrrolo[2,3-d]pyrimidin-4-one], the concentration for half-maximal inhibition (IC50) stood at 170 nM in test [2] and 8.5 nM at SHP2 (setting [3]).
The corresponding values for `Cn1cc2c(Cl)c(-c3c[nH]c4nc(N5CCC6NCC6C5)n(C)c(=O)c34)ccc2n1` (centres unmarked) [Example 40, 2-(3,7-diazabicyclo[4.2.0]octan-3-yl)-5-(4-chloro-2-methyl-2H-indazol-5-yl)-3-methyl-3,7-dihydro-4H-pyrrolo[2,3-d]pyrimidin-4-one] are 4500 nM and 96 nM.
The like results for `Cn1cc2c(Cl)c(-c3c[nH]c4nc(N5CCC(F)(CN)CC5)n(C)c(=O)c34)ccc2n1` [Example 65, 2-(4-(aminomethyl)-4-fluoropiperidin-1-yl)-5-(4-chloro-2-methyl-2H-indazol-5-yl)-3-methyl-3,7-dihydro-4H-pyrrolo[2,3-d]pyrimidin-4-one] were, in that order, 430 nM and 33 nM.
The like results for `Cn1cc2c(Cl)c(-c3c[nH]c4nc(N5C[C@H]6C[C@@H](C5)[C@@H]6N)n(C)c(=O)c34)ccc2n1` [Example 33, 2-(exo-6-amino-3-azabicyclo[3.1.1]heptan-3-yl)-5-(4-chloro-2-methyl-2H-indazol-5-yl)-3-methyl-3,7-dihydro-4H-pyrrolo[2,3-d]pyrimidin-4-one] were, in that order, 480 nM and 47 nM.
Consider `Cn1cc2c(Cl)c(-c3c[nH]c4nc(N5[C@@H]6CC[C@H]5[C@@H](N)C6)n(C)c(=O)c34)ccc2n1` [Example 46, 2-((1S,2S,4R)-2-amino-7-azabicyclo[2.2.1]heptan-7-yl)-5-(4-chloro-2-methyl-2H-indazol-5-yl)-3-methyl-3,7-dihydro-4H-pyrrolo[2,3-d]pyrimidin-4-one], for which the values for the 50% inhibitory concentration (IC50) (in test [2]; against SHP2 (setting [3])) were 420 nM and 33 nM, respectively.
Turning to `CN[C@H]1C[C@H]2CC[C@@H](C1)N2c1nc2[nH]cc(-c3ccc4nn(C)cc4c3Cl)c2c(=O)n1C` [Example 14, 5-(4-chloro-2-methyl-2H-indazol-5-yl)-3-methyl-2-(endo-3-(methylamino)-8-azabicyclo[3.2.1]octan-8-yl)-3,7-dihydro-4H-pyrrolo[2,3-d]pyrimidin-4-one], the 50% inhibitory concentration (IC50) in test [2] came to 310 nM; at SHP2 (setting [3]) it was 24 nM.
`Cn1cc2c(Cl)c(-c3c[nH]c4nc(N5[C@H]6CC[C@@H]5[C@@H](F)[C@H](N)C6)n(C)c(=O)c34)ccc2n1` [Example 129, 2-((1R,2S,3R,5S)-3-amino-2-fluoro-8-azabicyclo[3.2.1]octan-8-yl)-5-(4-chloro-2-methyl-2H-indazol-5-yl)-3-methyl-3,7-dihydro-4H-pyrrolo[2,3-d]pyrimidin-4-one]: the IC50 came to 980 nM in test [2] and 69 nM against SHP2 (setting [3]).
The like results for `Cc1nc2ccc(-c3c[nH]c4nc(N5[C@@H]6CC[C@H]5C[C@@H](N)C6)n(C)c(=O)c34)c(Cl)c2s1` [Example 7, 2-(endo-3-amino-8-azabicyclo[3.2.1]octan-8-yl)-5-(7-chloro-2-methylbenzo[d]thiazol-6-yl)-3-methyl-3,7-dihydro-4H-pyrrolo[2,3-d]pyrimidin-4-one] were, in that order, 170 nM and 9 nM.
The like results for `CCn1cc2c(Cl)c(-c3c[nH]c4nc(N5[C@@H]6CC[C@H]5C[C@@](C)(N)C6)n(C)c(=O)c34)ccc2n1` [Example 15, 2-(endo-3-amino-3-methyl-8-azabicyclo[3.2.1]octan-8-yl)-5-(4-chloro-2-ethyl-2H-indazol-5-yl)-3-methyl-3,7-dihydro-4H-pyrrolo[2,3-d]pyrimidin-4-one] were, in that order, 500 nM and 17 nM.
The like results for `Cc1c2c(Cl)c(-c3c[nH]c4nc(N5[C@H]6CC[C@@H]5[C@H](N)C6)n(C)c(=O)c34)ccc2nn1C` [Example 94, 2-((1R,2R,4S)-2-amino-7-azabicyclo[2.2.1]heptan-7-yl)-5-(4-chloro-2,3-dimethyl-2H-indazol-5-yl)-3-methyl-3,7-dihydro-4H-pyrrolo[2,3-d]pyrimidin-4-one] were, in that order, 72 nM and 5 nM.
As for `CCn1cc2c(Cl)c(-c3c[nH]c4nc(N5CCC(C)(CN)CC5)n(C)c(=O)c34)ccc2n1` [Example 2, 2-(4-(aminomethyl)-4-methylpiperidin-1-yl)-5-(4-chloro-2-ethyl-2H-indazol-5-yl)-3-methyl-3,7-dihydro-4H-pyrrolo[2,3-d]pyrimidin-4-one], the IC50 in test [2] is 130 nM; against SHP2 (setting [3]) it was 14 nM.

The values are drawn from patent publication US12037345B2, “Heterobicyclic compounds for inhibiting the activity of SHP2” (TAIHO PHARMACEUTICAL CO., LTD., priority 2018, dated 2024).
